According to US10597388B2, “Pyridazinone herbicides” (FMC CORPORATION, priority 2014, dated 2020):

Columns and labels:
Assay type in all cases: in vivo
[1] = system: kochia (Kochia scoparia); assay: Test A greenhouse herbicide test, pre- and postemergence
Summary of the method: (§1)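 Seeds in loam–sand blend received a preemergence directed soil spray; plants at 2–10 cm, one- to two-leaf stage, received postemergence sprays. Compounds in a non-phytotoxic solvent with surfactant. After about 10 d in a greenhouse, injury rated visually versus untreated controls on a 0–100 scale (100 = complete control).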

[2] = system: foxtail, giant (giant foxtail, Setaria faberii); assay: as above
Summary of the method: as §1

[3] = system: barnyardgrass (Echinochloa crus-galli); assay: as above
Summary of the method: as §1

[4] = system: ragweed (common ragweed, Ambrosia elatior); assay: as above
Summary of the method: as §1

[5] = system: corn (Zea mays); assay: as above; conditions: Postemergence; for Plant response rating, Corn: 125 g ai/ha, visual rating after approx. 10 d, 0 to 100 scale (0 no effect, 100 complete control); for Corn plant response rating: 0 to 100 scale, 0 is no effect, 100 is complete control
Summary of the method: as §1

[6] = system: kochia (Kochia scoparia); assay: Test C greenhouse herbicide test, postemergence
Summary of the method: (§2)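 Ratings are visual scores from 0 (no effect) to 100 (complete control), made against controls 13–15 d after treatment. Postemergence sprays were applied in the greenhouse to plants 2–18 cm tall (1- to 4-leaf stage) in peat-moss/vermiculite potting medium.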

[7] = system: oat, wild (wild oat, Avena fatua); assay: Test C greenhouse herbicide test, postemergence
Summary of the method: as §2

[8] = system: chickweed (common chickweed, Stellaria media); assay: Test C greenhouse herbicide test, postemergence
Summary of the method: as §2

[9] = system: sedge, umbrella (small-flower umbrella sedge, Cyperus difformis); assay: Test B flooded paddy test; conditions: 250 g ai/ha, Flood; visual rating on scale of 0 to 100 where 0 is no effect and 100 is complete control; 13 to 15 d after treatment
Summary of the method: (§3)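 Plants grown to the 2-leaf stage. At treatment, pots were flooded to 3 cm above the soil, compound was applied directly to the paddy water, and that depth was held throughout. After 13 to 15 d in the greenhouse, response was rated visually against controls on a 0 (no effect) to 100 (complete control) scale.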

[10] = system: barnyardgrass (Echinochloa crus-galli); assay: Test B flooded paddy test; conditions: 250 g ai/ha, Flood; visual rating on scale of 0 to 100 where 0 is no effect and 100 is complete control; 13 to 15 d after treatment
Summary of the method: as §3

[11] = system: rice (Oryza sativa); assay: Test B flooded paddy test; conditions: 250 g ai/ha, Flood; visual rating on scale of 0 to 100 where 0 is no effect and 100 is complete control; 13 to 15 d after treatment
Summary of the method: as §3

[12] = system: ducksalad (Heteranthera limosa); assay: Test B flooded paddy test; conditions: 250 g ai/ha, Flood; visual rating on scale of 0 to 100 where 0 is no effect and 100 is complete control; 13 to 15 d after treatment
Summary of the method: as §3

[13] = Postemergence, 125 g ai/ha, visual rating after approx. 10 d, 0 to 100 scale (0 no effect, 100 complete control)
[14] = Postemergence, 500 g ai/ha, 0 to 100 scale, 0 is no effect, 100 is complete control
[15] = Preemergence, 125 g ai/ha, 0 to 100 scale where 0 is no effect and 100 is complete control
[16] = Preemergence, 500 g ai/ha, 0 to 100 scale, 0 no effect, 100 complete control
[17] = Postemergence, 31 g ai/ha, 0 to 100 scale (0 no effect, 100 complete control)
[18] = Postemergence, 125 g ai/ha, scale 0 to 100, 0 is no effect, 100 is complete control
[19] = Postemergence, 250 g ai/ha, scale 0 to 100, 0 no effect, 100 complete control, 13 to 15 d
[20] = postemergence, 62 g ai/ha, scale 0 to 100, 0 no effect, 100 complete control
[21] = Postemergence, 1000 g ai/ha, 0 to 100 scale, 0 is no effect, 100 is complete control
[22] = Preemergence, 1000 g ai/ha, 0 to 100 scale, 0 no effect, 100 complete control

SMILES	Plant response rating, Kochia [1, 13]	Kochia plant response rating [1, 14]	Kochia plant response rating [1, 15]	Plant response rating, Kochia [1, 16]	Kochia plant response rating [6, 17]	Plant response rating, Kochia [6, 18]	Plant response rating, Kochia [6, 19]	Kochia plant response rating [6, 20]	Oat, Wild plant response rating [7, 17]	Plant response rating, Oat, Wild [7, 18]	Plant response rating, Oat, Wild [7, 19]	Oat, Wild plant response rating [7, 20]	Chickweed plant response rating [8, 17]	Plant response rating, Chickweed [8, 18]	Plant response rating, Chickweed [8, 19]	Chickweed plant response rating [8, 20]	Plant response rating, Sedge, Umbrella [9]	Plant response rating, Barnyardgrass [10]	Plant response rating, Rice [11]	Plant response rating, Ducksalad [12]	other results
Cc1ccc2ccccc2c1-c1c(O)c(Br)nn(C)c1=O [Compound 23]	100	100	80	100	95	100	100	95	85	100	100	95	100	100	100	100	95	0	0	75	Plant response rating, Foxtail, Giant [2, 13]: 90; Foxtail, Giant plant response rating [2, 14]: 90; Foxtail, Giant plant response rating [2, 15]: 90; Plant response rating, Foxtail, Giant [2, 16]: 90; Plant response rating, Barnyardgrass [3, 13]: 80; Barnyardgrass plant response rating [3, 14]: 90; Barnyardgrass plant response rating [3, 15]: 90; Plant response rating, Barnyardgrass [3, 16]: 90; Plant response rating, Ragweed [4, 13]: 90; Ragweed plant response rating [4, 14]: 100; Ragweed plant response rating [4, 15]: 90; Plant response rating, Ragweed [4, 16]: 90; Plant response rating, Corn [5]: 40; Corn plant response rating ([5]; 500 g ai/ha): 50
Cc1ccc2sc(C)c(-c3c(OC(=O)C(C)(C)C)c(C)nn(C)c3=O)c2c1 [Compound 26]	80	90	30	30	80	90	100	70	60	95	90	80	95	100	100	95	0	0	0	0	Plant response rating, Foxtail, Giant [2, 13]: 10; Foxtail, Giant plant response rating [2, 14]: 60; Foxtail, Giant plant response rating [2, 15]: 30; Plant response rating, Foxtail, Giant [2, 16]: 50; Plant response rating, Barnyardgrass [3, 13]: 10; Barnyardgrass plant response rating [3, 14]: 30; Barnyardgrass plant response rating [3, 15]: 0; Plant response rating, Barnyardgrass [3, 16]: 10; Plant response rating, Ragweed [4, 13]: 60; Ragweed plant response rating [4, 14]: 90; Ragweed plant response rating [4, 15]: 20; Plant response rating, Ragweed [4, 16]: 40; Plant response rating, Corn [5]: 0; Corn plant response rating ([5]; 500 g ai/ha): 0
Cc1ccc2ccccc2c1-c1c(O)c(I)nn(C)c1=O [Compound 29]	80	90	60	100	60	75	85	60	60	85	95	55	95	100	100	95	60	0	0	55	Plant response rating, Foxtail, Giant [2, 13]: 80; Foxtail, Giant plant response rating [2, 14]: 90; Foxtail, Giant plant response rating [2, 15]: 80; Plant response rating, Foxtail, Giant [2, 16]: 90; Plant response rating, Barnyardgrass [3, 13]: 70; Barnyardgrass plant response rating [3, 14]: 80; Barnyardgrass plant response rating [3, 15]: 70; Plant response rating, Barnyardgrass [3, 16]: 90; Plant response rating, Ragweed [4, 13]: 90; Ragweed plant response rating [4, 14]: 100; Ragweed plant response rating [4, 15]: 90; Plant response rating, Ragweed [4, 16]: 90; Plant response rating, Corn [5]: 10; Corn plant response rating ([5]; 500 g ai/ha): 40
CCc1ccc2ccccc2c1-c1c(O)c(C)nn(C)c1=O [Compound 32]					50	90	95	50	70	100	100	90	90	100	100	95	0	0	0	0	Kochia plant response rating [1, 21]: 100; Plant response rating, Kochia [1, 22]: 100; Foxtail, Giant plant response rating [2, 21]: 90; Plant response rating, Foxtail, Giant [2, 22]: 100; Barnyardgrass plant response rating [3, 21]: 90; Plant response rating, Barnyardgrass [3, 22]: 100; Ragweed plant response rating [4, 21]: 100; Plant response rating, Ragweed [4, 22]: 90; Corn plant response rating ([5]; 1000 g ai/ha): 50
